In one data set the test system is Salmo trutta ssp. fario. The note with it: chronic/long-term; duration: 28 days; growth.
For the next data set, the system named is Plant. As to conditions: chronic/long-term; duration: 6 weeks.
Another data set has as its system Oncorhynchus mykiss. The note with it: acute; duration: 96 hours; mortality.
A further data set has as its system Coturnix japonica. The note with it: acute; oral; mortality.
The next data set relates to Canidae. The note with it: chronic; duration: 1 years; oral; Dog Other; body weight.
The subject of the next data set is Anas platyrhynchos. As to conditions: acute; oral; unspecified; mortality.
Another data set has as its system Apis mellifera. The note with it: acute, mortality.
The test system of another data set is Folsomia candida. The note with it: chronic/long-term; duration: 28 days; reproduction.
The next data set relates to Typhlodromus pyri. Description: LR50; higher = less toxic. The note with it: not reported; mortality.

Several values for one entry are separate records, joined by “and”; a condition that tells them apart may be missing. Equal entries are not always repeated.

As a reminder, the LC50 is the concentration lethal to half of the exposed cells or organisms. Broadly, the NOAEL is the highest tested level that showed no adverse finding. For the compound `COC(=O)c1ccc(I)cc1S(=O)(=O)[N-]C(=O)Nc1nc(C)nc(OC)n1.[Na+]` [Iodosulfuron methyl ester sodium salt], the NOEC came to 7.79 mg/L in the data set on Salmo trutta ssp. fario and 316 mg/kg in the data set with Folsomia candida. Further, the NOAEC in the data set on Plant is 0.27 µg/L and 0.16 µg/L. For the same compound, the LC50 in the data set on Oncorhynchus mykiss is 0.684 µg/mL. Moreover, the LD50 in the data set with Coturnix japonica was > 2000 mg/kg; in the data set on Anas platyrhynchos it was > 2000 mg/kg; in the data set on Colinus virginianus (acute, oral, mortality), > 2000 mg/kg; in the data set on Apis mellifera (duration: 48 hours, dermal) it was > 100 µg/piece; in the data set with Apis mellifera (duration: 72 hours, oral, unspecified), > 70 µg/piece; in the data set with Rattus norvegicus (acute, Wistar, mortality), 2680 mg/kg. In addition, the NOAEL in the data set with Canidae was determined as 7 mg/kg-day; with Rattus norvegicus (chronic, duration: 2 years, F, Wistar, body weight) it was 3.91 mg/kg-day; in the data set on Rattus norvegicus (chronic, duration: 2 years, M, Wistar, body weight), 2.96 mg/kg-day; in the data set on Rattus norvegicus (chronic, duration: 2 years, body weight), 3 mg/kg-day; with Rattus norvegicus (developmental, development), 315 mg/kg-day. The compound further came in with an NOEL in the data set on Colinus virginianus (reproduction developmental, reproduction) of 78 mg/kg-day. The LR50 in the data set on Typhlodromus pyri was > 30.3 g/ha.

The record behind these values is EPA's ToxValDB 9.5 (doi:10.2903/j.efsa.2016.4453).
